The record followed here is ChEMBL document CHEMBL1201862, “PubChem BioAssay data set” (2004).

Among the test systems are KM-20L2; ACHN; DLD-1; M19-MEL; DMS-114; M14; TK-10; SF-295; DMS-273; SNB-78; SR; A498; NCI-H226; MDA-MB-231; MDA-N; PC-3; NCI/ADR-RES; MDA-MB-435; DU-145; T47D.
Common to all, as to assay: NCI anticancer screen, dose series, 48 h

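These data come from cells grown in 96-well plates and exposed to compound for 48 hours at five concentrations. GI50 is the concentration that inhibits growth by half.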 Calls of active or inactive are those of the source. Rule as the data show it: active = GI50 up to about 1.1 µM and inactive = higher. Bounds are passed on as bounds.

As for `COc1cc(C2C(C(=O)O)=C(CO)Oc3cc4c(cc32)OCO4)cc(OC)c1OC` (stereo not given), the GI50 in the assay on KM-20L2, with ACHN, in the assay with DLD-1, with M19-MEL, in the assay on DMS-114 and in the assay on M14 was > 100 µM (inactive) in each case. The GI50 in the assay on TK-10, in the assay with SF-295, with DMS-273 and in the assay with SNB-78 was > 100 µM (inactive) in each case.
Consider `CSC1=C(C)C(/C=N/Nc2ccc([N+](=O)[O-])cc2)=C(C)N(c2ccccc2)S1(=O)=O`, for which the GI50 in the assay on SR is 17.8 µM (inactive); in the assay on ACHN it was 44.9 µM (inactive); with A498 it was > 100 µM (inactive); in the assay on NCI-H226 it was > 100 µM (inactive); in the assay on MDA-MB-231, > 100 µM (inactive); with MDA-N, > 100 µM (inactive). The GI50 with PC-3 was 25.9 µM (inactive); in the assay with NCI/ADR-RES, 6.49 µM (inactive); in the assay with M14, 38.6 µM (inactive); in the assay with MDA-MB-435, > 100 µM (inactive); with TK-10 it was > 100 µM (inactive); with SF-295, 6.17 µM (inactive). Also, the GI50 was > 100 µM (inactive) in the assay on DU-145 and 3.09 µM (inactive) with T47D.
In the case of `NCCCNCCSSCc1ccccc1CSSCCNCCCN`, the GI50 in the assay with KM-20L2 is > 100 µM (inactive); with ACHN it was 37 µM (inactive); in the assay on A498, > 100 µM (inactive); with DLD-1, 44.4 µM (inactive); in the assay with M19-MEL, 50 µM (inactive); in the assay on DMS-114 it was 57.3 µM (inactive). The GI50 with M14 is 31.9 µM (inactive); with TK-10 it was > 100 µM (inactive); in the assay with SF-295, > 100 µM (inactive); with DMS-273, > 100 µM (inactive); in the assay with SNB-78, 56.5 µM (inactive).
On to `N/N=C1\C(=O)N(c2ccc(Cl)c(Cl)c2)C(=O)C1C(=O)Nc1ccc(Cl)c(Cl)c1` (stereo not given), for which the GI50 was 48.4 µM (inactive) in the assay on KM-20L2; 43.2 µM (inactive) in the assay with ACHN; 44.3 µM (inactive) with A498; 64 µM (inactive) in the assay with DLD-1; > 100 µM (inactive) in the assay with M19-MEL; 57.5 µM (inactive) in the assay with DMS-114. The GI50 was > 100 µM (inactive) with M14, > 100 µM (inactive) in the assay with TK-10, 31.9 µM (inactive) in the assay with SF-295 and 24.7 µM (inactive) in the assay with SNB-78.
Consider `CCC1(c2ccccc2)C(=O)N=C(c2ccccc2)N1CCc1ccccc1` (stereo not given), for which the GI50 in the assay with SR, in the assay with ACHN, with A498, with NCI-H226, in the assay with MDA-MB-231 and in the assay on MDA-N was > 100 µM (inactive) throughout. Moreover, the GI50 in the assay with PC-3, with NCI/ADR-RES, in the assay on M14, in the assay with MDA-MB-435, with TK-10 and with SF-295 was > 100 µM (inactive) throughout. Also, the GI50 in the assay with DU-145 and in the assay on T47D was > 100 µM (inactive) throughout.
As to `C[C@]12CC[C@H](O)C=C1CC[C@@H]1[C@@H]2CC[C@]2(C)C(c3ccc(=O)oc3)CC[C@]12O` (stereo not given in full), the GI50 with KM-20L2 was 0.0244 µM (active); with A498 it was 0.0125 µM (active); in the assay with NCI-H226 it was 0.0375 µM (active); in the assay with DLD-1, 0.0174 µM (active); with NCI/ADR-RES, 0.0328 µM (active); in the assay on M19-MEL, 0.0129 µM (active). In addition, the figures for the GI50 in the assay with SF-295, with DMS-273 and with SNB-78 were 0.0134 µM (active), 0.0125 µM (active) and 0.0163 µM (active), respectively.
With `C[S+](C)([O-])=Nn1c(=O)n2n(c1=O)[C@H]1CC[C@@H]2C1`, the GI50 in the assay with SR, in the assay on ACHN, with A498, in the assay on NCI-H226, with MDA-MB-231 and in the assay with MDA-N was > 100 µM (inactive) in each case. Besides, the GI50 in the assay on PC-3, in the assay with NCI/ADR-RES, with M14, with MDA-MB-435, in the assay on TK-10 and with SF-295 was > 100 µM (inactive) throughout. The GI50 in the assay with DU-145 and in the assay with T47D was > 100 µM (inactive) throughout.
With `COc1ccc2nc3ccc(OC)cc3c([S+]([O-])CCCl)c2c1` (stereo not given), the GI50 with SR is 2.67 µM (inactive); with ACHN it was 2.18 µM (inactive); with A498, 16.8 µM (inactive); in the assay with NCI-H226, 16.8 µM (inactive); with MDA-MB-231, 5.87 µM (inactive); in the assay with MDA-N it was 2.44 µM (inactive). Besides, the GI50 in the assay with PC-3 is 11.2 µM (inactive); in the assay on NCI/ADR-RES it was 15.2 µM (inactive); in the assay on M14, 3.52 µM (inactive); in the assay with MDA-MB-435, 3.73 µM (inactive); in the assay on TK-10, 3.81 µM (inactive); in the assay on SF-295, 22.2 µM (inactive). Further, the values for the GI50 with DU-145 and in the assay on T47D were 1.99 µM (inactive) and 2.04 µM (inactive), respectively.
Consider `CC12Nc3ccccc3C1=C(c1ccccc1)CC1C(=O)OC(=O)C12` (stereo not given), for which the GI50 with KM-20L2, in the assay on ACHN, with DLD-1, with M19-MEL, in the assay with DMS-114 and in the assay on M14 was > 100 µM (inactive) throughout. Further, the GI50 in the assay on TK-10, with SF-295, in the assay with DMS-273 and in the assay on SNB-78 was > 100 µM (inactive) in each case.
In the case of `CC(C)c1ccccc1SCc1cc(=O)cc(CSc2ccccc2C(C)C)o1`, the GI50 in the assay with SR is 31.7 µM (inactive); with ACHN, 32.6 µM (inactive); in the assay on A498 it was 20.3 µM (inactive); in the assay with NCI-H226 it was 21.2 µM (inactive); in the assay on MDA-MB-231, 17.9 µM (inactive); in the assay on MDA-N it was 18.8 µM (inactive). In addition, the GI50 in the assay on PC-3 was 13.7 µM (inactive); with NCI/ADR-RES, 17.7 µM (inactive); in the assay on M14, 20.2 µM (inactive); in the assay on MDA-MB-435, 15 µM (inactive); in the assay on TK-10 it was 17.9 µM (inactive); in the assay on SF-295 it was 17.7 µM (inactive). Further, the values for the GI50 in the assay with DU-145 and with T47D were 23.1 µM (inactive) and 24 µM (inactive), respectively.
Regarding `O=NN(CCCl)C(=O)N[C@H]1CCCC[C@@H]1Cl`, the GI50 is > 100 µM (inactive) with KM-20L2; 3.48 µM (inactive) in the assay with SR; 57.7 µM (inactive) with ACHN; > 100 µM (inactive) with A498; > 100 µM (inactive) with NCI-H226; > 100 µM (inactive) in the assay on DLD-1. The GI50 is 39.7 µM (inactive) in the assay on M19-MEL; 34.2 µM (inactive) in the assay with DMS-114; > 100 µM (inactive) with M14; > 100 µM (inactive) in the assay on TK-10; 47.1 µM (inactive) in the assay with SF-295; 62.7 µM (inactive) with DMS-273.
Turning to `COc1ccc2c(c1)c1cc(OC)ccc1n2CCCCOc1ccc(-c2c3ccccc3c(-c3ccc(OCCCCn4c5ccc(OC)cc5c5cc(OC)ccc54)cc3)c3ccccc23)cc1`, the GI50 in the assay on KM-20L2, in the assay with ACHN, in the assay with NCI-H226, in the assay on DLD-1, in the assay with M19-MEL and in the assay with DMS-114 was > 100 µM (inactive) throughout. In addition, the GI50 with M14, in the assay on TK-10 and in the assay on DMS-273 was > 100 µM (inactive) throughout.
`O=C(Nc1nc2ccc([N+](=O)[O-])cc2s1)C(=O)C(C(=O)c1ccccc1F)C1OC(=O)c2ccccc21` (stereo not given): the GI50 with KM-20L2 was 49.4 µM (inactive); in the assay on SR, 16.8 µM (inactive); in the assay with ACHN, 59.4 µM (inactive); with A498, 42.8 µM (inactive); with DLD-1, 41 µM (inactive); in the assay on M19-MEL, 31 µM (inactive). Also, the GI50 with DMS-114 was 25.1 µM (inactive); in the assay with M14 it was 56.2 µM (inactive); in the assay with TK-10, 87.1 µM (inactive); in the assay with SF-295, 56 µM (inactive); with DMS-273, 33.7 µM (inactive); in the assay on SNB-78, 25.1 µM (inactive).
Consider `COc1ccc(C(=O)/C(Br)=C/C(=O)O)cc1`, for which the GI50 was 29.5 µM (inactive) with KM-20L2; 25.1 µM (inactive) with SR; 55 µM (inactive) with ACHN; 25.1 µM (inactive) with A498; 27.3 µM (inactive) with NCI-H226; 28.2 µM (inactive) with MDA-MB-231. The GI50 is 20 µM (inactive) with MDA-N; 12.6 µM (inactive) in the assay with DLD-1; 29.7 µM (inactive) in the assay with PC-3; 21.3 µM (inactive) with NCI/ADR-RES; 14.5 µM (inactive) in the assay on M19-MEL; 18.6 µM (inactive) in the assay with DMS-114. Moreover, the GI50 is 26.2 µM (inactive) in the assay on M14; 25.8 µM (inactive) in the assay on MDA-MB-435; 51.3 µM (inactive) in the assay on TK-10; 37.9 µM (inactive) with SF-295; 9.82 µM (inactive) in the assay on DMS-273; 32 µM (inactive) in the assay on DU-145. The GI50 with T47D was 53.2 µM (inactive).
On to `COc1ccc(/C=C2/C(=O)N(C(=O)c3ccccc3O)N=C2C)cc1OC`, for which the GI50 is 24.9 µM (inactive) in the assay with KM-20L2; 0.644 µM (active) with SR; 0.162 µM (active) with ACHN; 0.121 µM (active) in the assay with A498; 0.637 µM (active) in the assay on NCI-H226; > 100 µM (inactive) in the assay on MDA-MB-231. Besides, the GI50 in the assay on MDA-N is 0.489 µM (active); with DLD-1, 0.23 µM (active); in the assay with PC-3, 2.37 µM (inactive); in the assay with NCI/ADR-RES, 0.614 µM (active); in the assay on M19-MEL it was 1.29 µM (inactive); with DMS-114, 0.301 µM (active). Further, the GI50 in the assay on M14 is 0.927 µM (active); with MDA-MB-435, 0.355 µM (active); in the assay on TK-10 it was 10.8 µM (inactive); in the assay on SF-295 it was 0.365 µM (active); in the assay with SNB-78, 0.0453 µM (active); in the assay on DU-145, 0.643 µM (active).
